Measured values taken from paper PMC4973902, “Identification of Novel Smoothened Ligands Using Structure-Based Docking” (PLoS ONE, 2016).
pIC50: −log10 of the molar value. Entries after “also recorded” stand apart in the source; their conditions may differ. Where two headings read alike, the source gives them in different places.

Assays:
[1] = Aggregation counter-screens (DLS, centrifugation, unrelated enzymes), overall outcome; type: physicochemical; details: enzyme counter-screens
Method: All the antagonists with low micromolar IC50 were counter-screened for colloidal aggregation, a common mechanism of artefactual activity in early ligand discovery. […] These observations highlight the importance of counter-screening for this artefactual mechanism of action when evaluating new Smoothened antagonists.
(§1) The assays were performed as always with the addition of a centrifugation step. The antagonists were diluted in media to their final concentration. Half the solution was used as standard treatment: the media in wells was replaced with the media containing the drugs. The other half of the solution was then centrifuged for 20 min at 21,000g. The supernatant was used to replace the media in the wells.
(§2) Compounds 13b, 19b, 20b, 25b, 27b, 32b, 37b, 40b and 45b were diluted with both filtered DMEM and KPi, with a final concentration of 1% DMSO. Measurements were made using a DynaPro Plate Reader II system (Wyatt Technology) with a 60 mW laser at ~830 nm in either 96-well or 384-well plates; this particular instrument had been modified by Wyatt Technology to have a larger laser beam width that is appropriate for detecting large colloidal particles.
Both DMEM and KPi were used as buffer.

[2] = system: Gli1 expression in Ptch1-/- MEFs; assay: qPCR of Gli1 expression in Ptch1-/- MEFs; type: cell-based, mouse; details: for pIC50: Mus musculus
Method: (§3) Antagonist candidates were tested using Ptch1^-/- reporter mouse embryonic fibroblasts (MEFs). In Ptch1^-/- cells, the Hh pathway is constitutively activated as a result of deletion of Patched-1, the Hedgehog receptor and a functional inhibitor of Smo. The reporter cells were engineered to express the 8XGli-Luciferase reporter that faithfully monitors levels of Gli-mediated transcriptional activity as a readout of Hedgehog signalling. Firefly Luciferase is therefore constitutively expressed in these cells and its expression is inhibited by Smo antagonists such as cyclopamine. In the initial test for activity, we screened the 21 docking hits at a dose of 30 μM. […] Their ability to repress the pathway was further confirmed by quantifying transcript levels of Gli1, a target gene of the Hedgehog pathway, using qPCR (Fig 1C and S1 Table).
(§4) Ptch1^-/- MEFs or C3H10T1/2 SMO cells (overexpression of mouse Smo wt or mouse Smo D477H using a retroviral vector) were plated at a density of 2x10^5 cells/well in 12-well plates. The next day, the confluent cells were serum-starved with plain DMEM for 24 h before drugs and compounds were added to the indicated final concentration. RNA was extracted using Trizol (Life Technologies, 15596–018) after 24 h. 1 μg of RNA was DNase-treated (Life Technologies, 18047–019) before being reverse transcribed into cDNA (High-Capacity Reverse Transcription kit, Life Technologies, 4368813). Real-time quantitative PCR reactions were performed on an ABI 7900HT in 384-well plates containing 20 ng cDNA, using Power SYBR Green PCR Master Mix (Life Technologies, 4367660). Relative Gli1 mRNA levels were calculated using the comparative Ct method, normalized to Gapdh mRNA. Primers used were validated as previously described.

mouse Smoothened = mouse Smoothened (Mus musculus, UniProt P56726); details: for Binding (yes/no), BODIPY-cyclopamine displacement: HEK293 mSmo-mCherry
Method: Using a stable line enabling the inducible expression of Smo-mCherry, we tested whether well-behaved, non-aggregating antagonists can specifically displace BODIPY-cyclopamine bound to Smoothened using flow cytometry.
Left: average cell fluorescence was measured by flow cytometry and plotted against antagonist concentration. Representative curve are shown.
A 293 stable cell line expressing tetracycline-inducible mouse Smoothened with mCherry fused to its C-terminus was used for these experiments. Cells were grown to confluence in the presence of 1 μg/mL tetracycline for 24 h. Cells were then incubated with 10 nM BODIPY-Cyclopamine and compounds for 2 h at 37°C. For FACS, cells were first trypsinized, fixed with 4% paraformaldehyde for 20 min, washed with TBS + 0.1% Triton X-100 and then sorted (FACS). BODIPY fluorescence was measured on the FACS Fortessa and FACS data was analyzed with FlowJo software. BODIPY fluorescence in control HEK293 was used to set the background threshold. Mean fluorescence was plotted against the compound concentration to calculate its IC50. For microscopy, fixed cells were imaged. Live cells were washed with PBS before fixing.

[3] = system: Gli-Luciferase reporter in Ptch1-/- MEFs; assay: 8xGli-Luciferase reporter assay in Ptch1-/- MEFs; type: cell-based, mouse; details: for inhibition at 30 µM / pIC50: Mus musculus; for inhibition at 30 µM: compared to DMSO; for pIC50: read-out: IC50 Gli-Luciferase assay (range, n); for Inhibition of Gli-Luciferase (yes/no): single-dose screen at 30 μM (vismodegib 100 nM)
Method: as §3
Ptch1^-/- MEFs stably expressing the Gli-Luciferase reporter and constitutive Renilla Luciferase were used. The Gli-Luciferase reporter is a Firefly Luciferase reporter driven by 8xGli consensus binding site in its promoter, cloned in a lentiviral plasmid carrying a puromycin resistance for selection. For the assay, 5x10^4 cells/well were plated in 48-well plates. The next day, the confluent cells were serum-starved with plain DMEM for 24 h. Drugs and compounds were added to the indicated final concentration and incubated for 24 h, each condition in duplicate. For the assay, Promega Dual Glow reagents were used. Media was removed and cells were lysed in 50 μL Passive Lysis Buffer for 10 min. 10 μL of lysate was assayed in black plates with 10 μL of each substrate, in duplicate. Luminescence was measured with an EnVision 2100 (Perkin Elmer). Firefly Luciferase luminescence was divided by the Renilla Luciferase luminescence, then normalized to vehicle condition to obtain the fold change in reporter activity.

[4] = target: T1, mouse D477H mutant (equivalent to human D473H) of Smo (Mus musculus, UniProt P56726, D477H); assay: Gli1 qPCR dose-response in C3H10T1/2 cells overexpressing Smo D477H; type: cell-based
T1 construct: expressed in transfected cells; host or cells: C3H10T1/2 cells, retroviral transduction
Source text: (§5) Fig 7 Binding poses and inhibition of vismodegib-resistant Smo by 45b. (A) Side view of the complex of Smo structure (represented as purple surface, TM6 was cut) with LY2940680 in the orthosteric site (represented as light pink sticks). (B)-(F) Predicted binding modes against the Smo WT of compounds 3, 6, 44, 244 and 45b, respectively. LY2940680 is represented as light pink wires, the compounds as green sticks, hydrogen bonds as black dashed lines and important residues as sticks. […] C3H10T1/2 cells were transduced with retrovirus for the overexpression of Smo wt or Smo D477H. (H) Predicted binding modes of compound 45b against a model of D473H Smo.
as §4, with “1 μg of RNA was DNase-treated (Life Technologies, 18047–019) before being reverse transcribed into cDNA (High-Capacity Reverse Transcription kit, Life Technologies, 4368813).” left out, “Primers used were validated as previously described.” left out

Smo wt = target: T2, Smo wt (Mus musculus, UniProt P56726); assay: Gli1 qPCR dose-response in C3H10T1/2 cells overexpressing Smo wt; type: cell-based; details: read-out: inhibition of Smo WT (dose-response, Fig 7G)
T2 construct: expressed in transfected cells; host or cells: C3H10T1/2 cells, retroviral transduction
Source text: as §5
as §4, with “1 μg of RNA was DNase-treated (Life Technologies, 18047–019) before being reverse transcribed into cDNA (High-Capacity Reverse Transcription kit, Life Technologies, 4368813).” left out, “Primers used were validated as previously described.” left out

[5] = system: TOPFLASH Wnt-ß-catenin reporter (Frizzled receptors); assay: TopFlash Wnt-ß-catenin reporter assay in HEK293T cells; details: Wnt3a-conditioned media
Method: We used HEK293T TopFlash cells, expressing a luciferase reporter under the control of a ß–catenin-responsive LEF/TCF promoter.
The assay was carried out in HEK293T, as described [71].

Smoothened = target: T3, Smoothened (Mus musculus, UniProt P56726); assay: Centrifugation counter screen of Smo antagonism; type: cell-based; details: 20 min centrifugation; Gli-luciferase, Gli1 qPCR, bodipy-cyclopamine displacement
T3 construct: endogenous in cells; host or cells: Ptch1-/- MEFs with 8xGli-Luciferase reporter (inferred)
Method: as §1

[6] = Dynamic Light Scattering (DLS); type: physicochemical; details: 1 μM
Method: as §2

Smo mutations at D473 = system: Smo mutations at D473; set-up: method as in PMID 25008467; details: cited from earlier work
D473H mutant of Smo = system: D473H mutant of Smo; set-up: method as in PMID 19726788; details: cited from earlier work
[7] = 24 h, read-out: IC50 Gli1 qPCR (range, n)

mouse Smoothened, sequence (P56726 33-793): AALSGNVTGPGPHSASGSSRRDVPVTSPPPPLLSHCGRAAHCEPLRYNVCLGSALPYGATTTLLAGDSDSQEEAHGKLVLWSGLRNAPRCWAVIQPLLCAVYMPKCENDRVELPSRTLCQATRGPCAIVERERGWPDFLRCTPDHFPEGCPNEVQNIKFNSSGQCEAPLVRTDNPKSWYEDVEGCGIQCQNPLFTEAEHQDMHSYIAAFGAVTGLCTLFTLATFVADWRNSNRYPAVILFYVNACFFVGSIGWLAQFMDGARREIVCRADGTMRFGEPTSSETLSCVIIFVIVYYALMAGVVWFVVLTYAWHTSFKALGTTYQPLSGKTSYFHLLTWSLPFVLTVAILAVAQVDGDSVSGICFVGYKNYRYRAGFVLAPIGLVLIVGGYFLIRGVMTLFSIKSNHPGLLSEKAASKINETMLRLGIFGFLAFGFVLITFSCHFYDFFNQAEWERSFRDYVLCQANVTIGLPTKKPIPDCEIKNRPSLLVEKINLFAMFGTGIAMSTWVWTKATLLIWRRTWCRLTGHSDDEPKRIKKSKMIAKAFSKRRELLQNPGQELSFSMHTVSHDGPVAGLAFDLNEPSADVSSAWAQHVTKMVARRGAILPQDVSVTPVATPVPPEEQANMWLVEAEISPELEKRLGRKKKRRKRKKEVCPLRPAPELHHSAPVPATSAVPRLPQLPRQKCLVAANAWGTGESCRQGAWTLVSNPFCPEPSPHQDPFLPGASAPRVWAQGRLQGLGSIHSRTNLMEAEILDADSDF
T1 sequence (P56726 33-793 D477H): as the sequence (P56726 33-793) above, with D445H counted along it
T3 sequence (P56726 33-793): as the sequence (P56726 33-793) above
T2 sequence (P56726 33-793): as above

Row | SMILES | outcome of aggregation counter-screens [1] | Inhibition - Gli1 qPCR (yes/no) [2] | pIC50 [2, 7] | pIC50 (mouse Smoothened) | inhibition at 30 µM [3] [%] | pIC50 ([3]; 24 h) | Inhibition of Gli-Luciferase (yes/no) [3] | also measured
1 | Cc1cccc(C(=O)Nc2cccc(NC(=O)Cc3cccnc3)c2)c1 [Compound 3] | well-behaved antagonists | yes | 4.02 | 3.78 | > 50 | 4.37 | yes | Binding (yes/no), BODIPY-cyclopamine displacement (mouse Smoothened): yes
2 | CN(C)c1ccc(CNC(=O)Nc2ccc(-n3ccnc3)nc2)cn1 [Compound 6] | well-behaved antagonists | yes | 3.96 |  | > 50 | 4.68 | yes | 
3 | COc1ccccc1C(=O)Nc1cccc(NC(=O)Cc2cccnc2)c1 [Compound 13b] |  |  |  |  |  | 4.96 |  | 
4 | c1ccc(CNc2cc(-c3ccc4c(c3)CNCC4)c3cc[nH]c3n2)nc1 [Compound 19b] |  |  |  |  |  | 4.65 |  | 
5 | NC(=O)c1cc(-c2cc(NCc3ccccn3)nc3[nH]ccc23)cs1 [Compound 25b] | well-behaved antagonists |  | 5.11 |  |  | 5.64 |  | 
6 | Cc1cc2c(-c3cc(NCc4ccccn4)nc4[nH]ccc34)ncnc2s1 [Compound 32b] | well-behaved antagonists |  | 4.90 |  |  | 5.03 |  | 
7 | NC(=O)c1cc(-c2cc(NCc3cccnc3)nc3[nH]ccc23)cs1 [Compound 37b] | well-behaved antagonists |  | 5.06 |  |  | 5.27 |  | 
8 | COc1cc(-c2cc(NCc3ccccn3)nc3[nH]ccc23)ccc1O [Compound 44] | well-behaved antagonists | yes | 4.85 | 4.81 | > 50 | 4.46 | yes | Binding (yes/no), BODIPY-cyclopamine displacement (mouse Smoothened): yes
9 | CSc1nc(C)cc(-c2cc(NCc3ccccn3)nc3[nH]ccc23)n1 [Compound 45b] | well-behaved antagonists |  | 5.28 | 4.90 |  | 5.51 |  | pIC50 ([4]; C3H10T1/2 cells overexpressing mouse Smo D477H, read-out: inhibition of Smo D473H mutant (dose-response, Fig 7G)): 5.51; shift at D473H mutant relative to WT ([4]; D473H vs WT): 2.7 fold; pIC50 (Smo wt): 5.96; activity on TOPFLASH Wnt-ß-catenin reporter ([5]; 10 μM, 24 hours co-treatment): no detectable activity; also recorded: lack of inhibition
10 | NC(=O)c1ccc(-c2cc(NCc3ccccn3)nc3[nH]ccc23)o1 [Compound 244] | well-behaved antagonists | yes | 4.95 | 4.23 | > 50 | 5.28 | yes | Binding (yes/no), BODIPY-cyclopamine displacement (mouse Smoothened): yes
11 | CCC(C)n1ncn(-c2ccc(N3CCN(c4ccc(OCC5COC(Cn6cncn6)(c6ccc(Cl)cc6Cl)O5)cc4)CC3)cc2)c1=O (stereo not drawn) [itraconazole] |  |  |  |  |  |  |  | effect of centrifugation on antagonism of Smo (Smoothened): disrupted by prior-centrifugation; also recorded: largely or entirely eliminated; radius of colloidal particles by DLS ([6]; DMEM): 180 nm
12 | CN(C(=O)c1ccc(F)cc1C(F)(F)F)C1CCN(c2nnc(-c3ccnn3C)c3ccccc23)CC1 [taladegib] |  |  |  |  |  |  |  | efficacy in the resistant mutants (Smo mutations at D473): unaffected or have minor drop in efficacy
13 | CS(=O)(=O)c1ccc(C(=O)Nc2ccc(Cl)c(-c3ccccn3)c2)c(Cl)c1 [vismodegib, reference compound] |  |  |  |  |  |  |  | particle formation by DLS [6]: does not form particles; pIC50 ([2]; read-out: IC50 mGli1 qPCR (range, n)): 8.74; reduction of binding to Smo by D473H mutation (D473H mutant of Smo): 100 folds; activity on TOPFLASH Wnt-ß-catenin reporter ([5]; 100 nM): lack of inhibition; pIC50 [3]: 7.51
